Data from patent US12594278B2, “Method for treatment of muscular dystrophy” (CHILDREN'S NATIONAL MEDICAL CENTER, priority 2019, dated 2026).

Experiments:
B6A/J mice = test: Repeat notexin-induced TA injury in batimastat-treated B6A/J mice; type: in vivo, mouse
Method: Whether this effect of batimastat to repress FAP adipogenesis can improve muscle histopathology was tested in vivo. 12Mo B6A/J mice were treated for 10 weeks with batimastat (2 mg/kg i.p. 3× weekly). […] To determine if this reduction in adipogenic replacement was due to an effect on just FAP differentiation or also on FAP proliferation, FAP accumulation was quantified by PDGFRα labeling and no effect of batimastat treatment on FAP number was found (FIG. 12). […] Thus, inhibition of adipogenesis by batimastat is not due to reduced FAP numbers or improved myofiber repair. To further confirm the ability of batimastat to prevent dysferlinopathic muscle from injury-triggered FAP adipogenesis, we employed the repeat notexin-induced TA injury approach which induces significant adipogenic replacement of the muscle (FIG. 6D and FIG. 6E). […] Given that FAP numbers are unaffected by batimastat treatment, it was examined whether these batimastat treatment causes cells to adopt a fibrogenic fate by blocking their adipogenic differentiation. However, no change in intra-muscular fibrosis was observed as a result of batimastat treatment in either the gastrocnemius or injured TA (FIG. 12). […]
Microscopy and Image Analysis. […] Perilipin-1 quantification was performed by thresholding the image to exclude non-specific staining and then calculating the area of each lipid deposit encircled by perlipin-1 (excluding those in the epi- or perimysium) using MetaMorph software (Molecular Devices). The total area encircled by perilipin-1 was calculated for all lipid deposits across the muscle and expressed relative to the total cross-sectional area. PDGFRα and AnxA2 positive area was calculated using CellSens software (Olympus) by thresholding to remove non-specific staining and calculating the total positive area (again, excluding any epi- or perimysial staining) relative to the entire muscle cross-section. […]

[1] = test system: cultured adipogenic precursors and WT mouse FAPs; details: previously shown; cited from earlier work

With `CNC(=O)[C@H](Cc1ccccc1)NC(=O)[C@H](CC(C)C)[C@H](CSc1cccs1)C(=O)NO` [batimastat] the “reduction in perilipin-1 positive area in TA following repeat notexin injury” value (B6A/J mice; 3 notexin injuries during 10 weeks of batimastat 2 mg/kg i.p. 3× weekly, vs untreated mice) was roughly 40%, the “intra-muscular fibrosis in injured TA (Masson's trichrome)” value (B6A/J mice; 3 repeat notexin injuries, batimastat 2 mg/kg i.p. 3× weekly for 10 weeks) was “no change” and the “FAP accumulation caused by repeat notexin injuries (PDGFRα)” value (B6A/J mice; TA, batimastat 2 mg/kg i.p. 3× weekly for 10 weeks) was “did not reduce”. For the same molecule, the “adipogenesis of cultured adipogenic precursors and WT mouse FAPs” value [1] was “restrict adipogenesis”.
